Measured values published in US12440500B2, “Phytoecdysones and the derivatives thereof for use in the treatment of neuromuscular diseases” (BIOPHYTIS, priority 2019, dated 2025).

Tests used:
muscles = settings: rats in vivo; cited from earlier work
murine myotubes C2C12 = murine myotubes C2C12 in vitro; cited from earlier work
[1] = young athletes; cited from earlier work
[2] = tested on: SMA mice (FVB/NRj-SmnΔ7/Δ7 huSMN2+/+ 2 copies); experiment: Phenotypic analysis: weight and survival of severe SMA mice under daily gavage; type: in vivo, mouse
Text: A severe SMA mouse model was used on an FVB/NRj gene pool, characterized by the invalidation of the exon 7 of the murine gene Smn and expressing 2 copies of the human transgene SMN2 (Smn^Δ7/Δ7; huSMN2^+/+) (Hsieh et al., 2000). The mice resulting from these crossings having the “FVB/NRj-Smn^Δ7/Δ7 huSMN2^+/+ 2 copies” genotype are described as “SMA”. These mice are characterized by progressive growth failure which is observed starting from 4 days post-natal and have a degeneration of about 50% of the motor neurons of the ventral horn of the spinal cord at the end of life, progressive muscular atrophy and an average lifespan of about 12 days (Hsieh et al., 2000). The mice having the “FVB/NRj-Smn^+/Δ7 huSMN2^++ 2 copies” genotype have no particular phenotype and are used as so-called “control” mice. The mice were treated via daily gavage of a dose of 50 mg/kg, either with the molecule BIO101 complexed to a vehicle (cyclodextrin in the present case), or with the vehicle alone (VH). The weight and the survival were analyzed on a daily basis until P11. In the rest of the description, n corresponds to the size of the sample and p corresponds to the “p value” used to quantify the statistical significance of a result.
The same type II murine model was used to characterize the phenotypic effects of the molecule BIO103 in a severe SMA model. The mice were treated via daily gavage of a dose of 50 mg/kg, either with the molecule BIO103 complexed with the vehicle (cyclodextrin in the present case), or with the vehicle alone (VH). The weight and the survival were analyzed on a daily basis until P11.

[3] = tested on: muscles Soleus, Plantaris and Tibialis of SMA mice; experiment: Histological analysis of muscle cross-sections (Hematoxylin-Eosin): number and cross-section surface of muscle fibers; type: in vivo, mouse
Protocol: At P11, one hour after their last gavage, the treated mice were anaesthetized with pentobarbital 1% at 6 μL/g of mouse then the extensor muscles Soleus, with a mixed typology, extensor Plantaris, with a fast typology, and flexor Tibialis, with a fast typology, were sampled in order to conduct histological or molecular studies. After sampling, the muscles Soleus, Plantaris and Tibialis were included individually in a preservation medium then frozen in cooled isopentane. For each muscle, medial cross-sections 10 μm thick were realized. These sections were stained with Hematoxyline-Eosin, dehydrated and mounted in an inclusion medium. The images of these sections were taken with a microscope (with a magnification ×200). In order to obtain images with an impression of relief, the differential interference contrast technique was used. From these images, the number of muscle fibers of each muscle and the cross-section surface of 20% of these fibers were counted using image processing software (FIG. 2).

Structure (SMILES)	effects on protein syntheses in muscles (muscles)	effects on protein syntheses (murine myotubes C2C12)	muscle mass [1]	survival at P11 ([2]; 50 mg/kg daily gavage P0 to P11) [%]	loss of weight of the animals ([2]; 50 mg/kg daily gavage from birth to P11, versus vehicle)	atrophy of the muscle fibers (cross-section surface) in relation to healthy control mice ([3]; Plantaris, P11, SMA mice treated P0 to P11 (SMA vehicle 46%)) [%]	atrophy of the muscle fibers (cross-section surface) in relation to healthy control mice ([3]; Soleus, P11, SMA mice treated P0 to P11 (SMA vehicle 50.2%)) [%]	atrophy of the muscle fibers (cross-section surface) in relation to healthy control mice ([3]; Tibialis, P11, SMA mice treated P0 to P11 (SMA vehicle 56.1%)) [%]	proportion of fibers with cross-section surface greater than 400 μm^2 ([3]; Tibialis, versus SMA vehicle)	proportion of small fibers with cross-section surface less than 200 μm^2 ([3]; Tibialis, versus SMA vehicle, p<0.05)
CC(C)(O)CC[C@@H](O)[C@](C)(O)[C@H]1CC[C@@]2(O)C3=CC(=O)[C@@H]4C[C@@H](O)[C@@H](O)C[C@]4(C)[C@H]3CC[C@]12C [20-hydroxyecdysone]	stimulating effects	stimulating effects	favors the increase							
CCSCC(=O)[C@H]1CC[C@@]2(O)C3=CC(=O)[C@@H]4C[C@@H](O)[C@@H](O)C[C@]4(C)C3CC[C@]12C (stereo partly drawn) [BIO103, (2S,3R,5R,10R,13R,14S,17S)-17-(2-ethylsulfanylacetyl)-2,3,14-trihydroxy-10,13-dimethyl-2,3,4,5,9,11,12,15,16,17-decahydro-1H-cyclopenta[a]phenanthren-6-one]				66.6	tends to limit	15.3	37.1	22.1	significant increase	decreases significantly
